What was measured:
[1] = test system: carrier RNA; experiment: Capping efficiency evaluation (1) using anti-cap antibody; conditions: Anti-7-methylguanosine (m7G)-Cap mAb, compared with commercially available ARCA
Description: Nuclease-free water was added into the lyophilized carrier RNA to obtain an RNA stock solution (with a concentration of 2 μg/L). Next, the RNA stock solution with various cap analogs (Compound (3) and Jena-ARCA cap analog, with trade number #NU-855L, commercially available from Jena Bioscience) was heated individually at 80° C. for 2 minutes, and then cooled at 0° C. for 5 minutes. Next, the result was placed on a nitrocellulose membrane and exposed to UV illumination to obtain a crosslinked RNA sample.
Then, 2.5% skim milk solution was added to block the nitrocellulose membrane with crosslinked RNA sampleat room temperature for 30 minutes. Thereafter, the primary antibody (Anti-7-methylguanosine (m7G)-Cap mAb) was diluted with the 2.5% skim milk solution and incubated at room temperature for 1 hour. Next, the sample was washed three times with TBST buffer (10 minutes each time). The result was reacted with chemiluminescent reagent (Femto) for 1-3 minutes. Finally, an image analysis of the result was performed via a chemiluminescent imaging system (Fujifilm LAS 4000).

[2] = test system: HEK293 (RIG-I+)-IFNβ-fLuc cells; experiment: Cell immunogenicity evaluation (luciferase reporter); format: cell-based; conditions: luciferase mRNA capped with the cap analog, 200 ng per well, 5 hours, compared with Jena-ARCA
Description: HEK293 (RIG-I^+)-IFNβ-fLuc cells were seeded at 1×10^4 cells per well in a 96-well culture plate and cultured for 24 hours for attachment. Each well was treated with transfection reagent (catalog #Lipofectamine MessengerMax, commercially available from Thermo Fisher, 0.15 μL per well) and samples (200 ng per well). The cells were incubated in a 37° C. incubator with 5% carbon dioxide for 5 hours. Next, 100 µL of signal-activating fluorescence detection reagent (One-Glo Luciferase) was added to each well and incubated at room temperature for 5 minutes to measure luciferase activity. Next, 180 μL of the reaction mixture was pipetted, and the fluorescence values were recorded using a microplate reader (GloMax Microplate Reader).

[3] = test system: HEK293 cells; experiment: Transfection efficiency evaluation (luciferase activity); format: cell-based; conditions: luciferase mRNA capped with the cap analog, 50 ng per well, 5 hours, compared with Jena-ARCA
Description: Nuclease-free water was added to the lyophilized carrier RNA to obtain an RNA stock solution (with concentration of 2 μg/L). Next, deionized water (0.1 mL) and RNA stock solution (10 μL) were mixed with cap analogs (compound (3), compounds (25), (33) to (35), and Jena-ARCA capping analog (number #NU-855L, commercially available from Jena Bioscience)) individually to obtain the samples.
HEK293 cells were seeded at 4×10^4 cells per well in a 96-well culture plate and cultured for 24 hours for attachment. Next, each well was treated with transfection reagent (catalog #Lipofectamine MessengerMax, commercially available from Thermo Fisher, 0.3 μL per well) and samples (50 ng per well). The cells were incubated in a 37° C. incubator with 5% carbon dioxide for 5 hours. Subsequently, 100 μL of signal-activating fluorescence detection reagent (One-Glo Luciferase) was added to each well and incubated at room temperature for 5 minutes to measure luciferase activity. Then, 100 μL of the reaction mixture was pipetted and the fluorescence values were recorded using a microplate reader (GloMax Microplate Reader).

[4] = test system: carrier RNA; experiment: Capping efficiency evaluation (2) using IP-RP-UPLC (1); conditions: UV260
Description: Nuclease-free water was added into the lyophilized carrier RNA to obtain an RNA stock solution (with a concentration of 2 μg/L). Next, deionized water (0.1 mL) and RNA stock solution (10 μL) were mixed with cap analogs (compound (3) and Jena-ARCA cap analog (product number #NU-855L, commercially available from Jena Bioscience)) individually to obtain the samples.
Next, the sample (10 μL) was injected into a column to perform ion-pair reverse-phase ultra-performance liquid chromatography (IP-RP UPLC) using the solution gradient outlined in Table 6 (45 minutes). The absorbance at the UV260 wavelength was monitored. The column used was an oligonucleotide column (Acquity Premier Oligonucleotide C18, manufactured and sold by Waters Corp). A water-based buffer solution (triethylamine acetate buffer, pH 7.0, concentration 100 mM) was used as Solution A, and an acetonitrile (ACN)-based buffer solution (composed of Solution A and ACN in a 3:1 volume ratio) was used as Solution B.

[5] = biological target: T7 enzyme (Escherichia phage T7, UniProt P00573); experiment: Evaluation of mRNA yield by in vitro transcription (IVT) with cap analogs; format: biochemical; conditions: input DNA 5 μg
Description: mRNA was produced using in vitro transcription (IVT) technology with cap analogs of Compound (25), (26) and (33) to (35) of the disclosure, as well as the TriLink CleanCap cap analog (product number #N-7113). First, the DNA template plasmid required for IVT was prepared, followed by an enzymatic reaction using T7 enzyme to synthesize mRNA.

[6] = test system: 40-nt mRNAs; experiment: Capping efficiency evaluation (3) using IP-RP-UPLC, 40-nt mRNAs from IVT; format: biochemical; conditions: 40-nt mRNAs by IVT with T7 enzyme, UV 260 nm
Description: mRNA was produced using in vitro transcription (IVT) technology with cap analogs of Compound (25), (33) to (35) of the disclosure herein, as well as the TriLink CleanCap cap analog (product number #N-7113). The DNA template used in this process consisted of 40-nucleotide (nt) fragments, and mRNA was synthesized through an enzymatic reaction using T7 enzyme to produce 40-nt mRNAs.
Nuclease-free water was added to the lyophilized carrier RNA to obtain an RNA stock solution (with concentration of 2 μg/L). Deionized water (0.1 mL) and RNA stock solution (10 μL) were then mixed with the 40-nt mRNAs obtained by aforementioned cap analogs to obtain the samples.
Next, 10 μL of each sample was injected into a column and analyzed using ion-pair reversed-phase ultra-performance liquid chromatography (IP-RP UPLC) (45 minutes) according to the solution gradient listed in Table 7. The absorbance value of UV 260 nm was monitored, and the capping efficiency (%) was evaluated based on the obtained results, as shown in Table 8. The column used for the analysis was an oligonucleotide column (Acquity Premier Oligonucleotide C18, manufactured and sold by Waters Corp). A water-based buffer solution (triethylammonium acetate buffer, pH 7.0, concentration 100 mM) was used as Solution A, while an acetonitrile (ACN)-based buffer solution (a mixture of Solution A and acetonitrile in a 3:1 volume ratio) was used as Solution B.

Chain of T7 enzyme (P00573 whole entry): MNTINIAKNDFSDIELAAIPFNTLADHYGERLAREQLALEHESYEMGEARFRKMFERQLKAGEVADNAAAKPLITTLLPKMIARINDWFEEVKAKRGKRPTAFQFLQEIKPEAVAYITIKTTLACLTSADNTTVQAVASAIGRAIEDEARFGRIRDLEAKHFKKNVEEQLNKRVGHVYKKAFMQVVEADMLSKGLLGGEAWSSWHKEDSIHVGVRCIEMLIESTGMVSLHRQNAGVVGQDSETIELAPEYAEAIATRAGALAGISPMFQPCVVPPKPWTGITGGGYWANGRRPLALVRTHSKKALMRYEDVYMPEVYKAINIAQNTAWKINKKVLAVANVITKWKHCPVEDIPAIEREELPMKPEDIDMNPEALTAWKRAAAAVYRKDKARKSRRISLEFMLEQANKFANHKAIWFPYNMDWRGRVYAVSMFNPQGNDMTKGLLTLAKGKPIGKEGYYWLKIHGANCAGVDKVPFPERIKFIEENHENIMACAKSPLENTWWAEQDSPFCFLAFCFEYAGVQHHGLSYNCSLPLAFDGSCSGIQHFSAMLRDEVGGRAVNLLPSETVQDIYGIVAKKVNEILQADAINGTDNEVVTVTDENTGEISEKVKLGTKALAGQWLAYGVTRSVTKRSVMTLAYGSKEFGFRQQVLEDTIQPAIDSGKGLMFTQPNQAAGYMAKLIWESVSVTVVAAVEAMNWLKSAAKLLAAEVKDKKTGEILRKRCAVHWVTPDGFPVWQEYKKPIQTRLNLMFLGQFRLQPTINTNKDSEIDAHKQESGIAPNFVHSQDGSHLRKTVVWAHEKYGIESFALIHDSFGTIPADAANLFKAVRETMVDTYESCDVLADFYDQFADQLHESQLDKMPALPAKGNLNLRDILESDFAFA

Question: Which “capping capability (chemiluminescent image analysis)” value [1] does the source give for `COC1[C@@H]2OC[C@]1(COP(=O)(O)OP(=O)(O)OP(=O)(O)OC[C@H]1O[C@@H](n3cnc4c(=O)[nH]c(N)nc43)[C@@H](O)C1O)O[C@H]2n1c[n+](C)c2c(=O)[nH]c(N)nc21` (stereo partly shown) [Compound (3)] here?
Answer: comparable to that of commercially available ARCA

Question: What about the “immune response (luciferase activity)” value [2] of the same compound?
Answer: lower immune response

Question: What about the “nucleic acid translation and protein expression (luciferase activity)” value [3] of the same compound?
Answer: superior nucleic acid translation and protein expression

Question: What about the capping efficiency [4] of the same compound?
Answer: approximately 60.8%

Question: `CO[C@@H]1C(O)[C@H](n2c[n+](C)c3c(=O)[nH]c(N)nc32)O[C@@H]1COP(=O)(O)OP(=O)(O)OP(=O)(O)OC[C@]12CN(C)[C@@H](C1OP(=O)(O)OC[C@H]1O[C@@H](n3cnc4c(=O)[nH]c(N)nc43)[C@@H](O)C1O)[C@H](n1cnc3c(N)ncnc31)O2` (stereo partly shown) [Compound (25)] was tested. Which “mRNA” value [5] did it give?
Answer: 167 µg

Question: And the “nucleic acid translation and protein expression (luciferase activity)” value [3]?
Answer: superior nucleic acid translation and protein expression

Question: And the “Capping efficiency (%)” value [6]?
Answer: 71.3%

Question: With `CO[C@H]1[C@@H](O)[C@H](n2c[n+](C)c3c(=O)[nH]c(N)nc32)O[C@@H]1COP(=O)(O)OP(=O)(O)OP(=O)(O)OC[C@H]1O[C@@H](n2cnc3c(=O)[nH]c(N)nc32)[C@H](O)[C@@H]1O` [Jena-ARCA, reference compound] as the compound, how does the capping efficiency [4] read?
Answer: approximately 63%

Question: With `COC1[C@@H](COP(=O)(O)OP(=O)(O)OP(=O)(O)OC[C@]23CN(S(C)(=O)=O)[C@@H](C2OP(=O)(O)OC[C@H]2O[C@@H](n4cnc5c(=O)[nH]c(N)nc54)[C@@H](O)C2O)[C@H](n2cnc4c(N)ncnc42)O3)O[C@@H](n2c[n+](C)c3c(=O)[nH]c(N)nc32)[C@H]1O` (stereo partly shown) [Compound (26)] as the compound, how does the “mRNA” value [5] read?
Answer: 95 µg

Question: For `CNc1ncnc2c1ncn2[C@@H]1O[C@H](COP(=O)(O)OP(=O)(O)OP(=O)(O)OC[C@@]23CN(S(C)(=O)=O)C([C@H](n4c[n+](C)c5c(=O)[nH]c(N)nc54)O2)[C@H]3OC)C(OP(=O)(O)OC[C@H]2O[C@@H](n3cnc4c(=O)[nH]c(N)nc43)[C@@H](O)C2O)[C@@H]1OC` (stereo partly shown) [Compound (35)], which “mRNA” value [5] is on record?
Answer: 138 µg

Question: And the “Capping efficiency (%)” value [6]?
Answer: 81.4%

Question: Which results are given for `CO[C@@H]1C2OC[C@]1(COP(=O)(O)OP(=O)(O)OP(=O)(O)OC[C@H]1O[C@@H](n3cnc4c(N)ncnc43)[C@@H](OC)C1OP(=O)(O)OC[C@H]1O[C@@H](n3cnc4c(=O)[nH]c(N)nc43)[C@@H](O)C1O)O[C@H]2n1c[n+](C)c2c(=O)[nH]c(N)nc21` (stereo partly shown) [Compound (33)]?
Answer: mRNA [5]: 134 µg; Capping efficiency (%) [6]: 100%
